Data from patent US20140140951A1, “D-Alanine Ester of Rp-Nucleoside Analog” (priority 2012, published 2014).
pEC50: −log10 of the molar value.

Columns and labels:
[1] = system: HCV genotype 1b replicon; assay: HCV replicon assay (luciferase reporter); format: cell-based; conditions: Hepatitis C virus; Zluc (Huh-7-derived) cells, 72 hours
Procedure: Huh-7-derived cell line (Zluc) that harbors an HCV genotype 1b replicon and a luciferase reporter gene was grown in Dulbecco's Modified Eagle Medium (DMEM) supplemented with 10% fetal bovine serum, 2 mM GlutaMAX, 1% MEM nonessential amino acids, 100 IU/mL penicillin, 100 μg/mL streptomycin, and 0.5 mg/mL Geneticin® (G418). For dose response testing the cells were seeded in 96-well plates at 7.5×10^3 cells per well in a volume of 50 μL, and incubated at 37° C./5% CO2. Drug solutions were made up freshly in Huh-7 media as 2× stocks. […] were prepared from these stocks in DMEM without G418. At least three hours after Zluc cells were seeded, drug treatment was initiated by adding 50 μL of drug dilutions to the plates in duplicate. Final concentrations of drug ranged from 100 μM to 0.0000512 μM. Cells were then incubated at 37° C./5% CO2. […] For this, media was removed from the plates via gentle tapping. Fifty microliters of ONE-glo luciferase assay reagent was added to each well. The plates were shaken gently for 3 min at room temperature and luminescence was measured on a Victor^3 V 1420 multilabel counter (Perkin Elmer) with a 1 second read time using a 700 nm cut-off filter. The EC50 values were calculated from dose response curves from the resulting best-fit equations determined by Microsoft Excel and XLfit 5.2 software. […]

[2] = Cytotoxicity evaluation (CellTiter-Blue cell viability); format: cell-based; conditions: human, Zluc cells (HCV replicon cells)
Procedure: For cytotoxicity evaluation, Zluc cells were treated with compound as described herein, and cell viability was monitored using the CellTiter-Blue Cell Viability Assay (Promega) by adding 20 μL of the assay solution to each well. The plates were then incubated at 37° C./5% CO2 for at least 3 hours. Fluorescence was detected in plates using excitation and emission wavelengths of 531 and 595 nm, respectively, in a Victor^3 V 1420 multilabel counter (Perkin Elmer) and CC50 values were determined using Microsoft Excel and XLfit 5.2 software.

[3] = Stability in liver microsomes; format: in vitro ADME, human; conditions: 10 μM, 1.0 mg/mL protein, NADPH, 60 min
Procedure: (§1) Stability of test compounds was determined in subcellular fractions (microsomes and S9) of human liver and intestine in duplicate for each matrix. Pooled liver and intestinal microsomal, intestinal and liver S9 proteins (1.0 mg/mL), suspended in incubation buffer (100 mM potassium phosphate, pH 7.4, 5 mM MgCl2, and 0.1 mM EDTA), were preincubated for 5 min at 37° C. with 10 μM of a test compound from a 10 mM stock solution in DMSO (final DMSO concentration was 0.1%); the reaction was initiated by the addition of NADPH (3 mM final concentration). At specific times (0 and 60 min), 0.1 mL samples were taken and the reaction terminated by the addition of 4 volumes of stop solution (acetonitrile with 500 ng/mL carbutamide as an internal standard). The samples were vortexed for 30 sec and then centrifuged at 16,000 g for 10 min. Aliquots of supernatants (100 μL each) were transferred to 96 deep-well plates preloaded with 100 μL distilled water and analyzed after mixing by LC-MS/MS. The MS peak area ratio of the test compound versus the internal standard was calculated and percent unchanged test compound over 60 minutes was calculated using this ratio.

[4] = Stability in intestinal microsomes; format: in vitro ADME, human; conditions: 10 μM, 1.0 mg/mL protein, NADPH, 60 min
Procedure: as §1

[5] = Liver pharmacokinetics (triphosphate) following a single oral dose in CD-1 mice; format: in vivo; conditions: single oral dose 10 mg/kg for I or 25 mg/kg for II in PEG 200, CD-1 male mice
Procedure: Liver samples were analyzed for the active species 2′-methyl-2′-fluorouridine triphosphate (2′-Me-2′-F—U TP) by LC-MS/MS. […] Internal standard solution was added to the homogenate followed by neutralization with 20% ammonium hydroxide solution and addition of 500 μL 1% formic acid. The tissue samples were extracted by weak anion exchange solid phase extraction (SPE). Post extraction, the eluates were evaporated under nitrogen, followed by reconstitution before injection onto the LC-MS/MS system. […] The calibration range was 10 to 10000 pmol/mL in mouse liver homogenate (50 to 50000 pmol/g of mouse liver).

SMILES: CC(C)OC(=O)[C@@H](C)N[P@](=O)(OC[C@H]1O[C@@H](n2ccc(=O)[nH]c2=O)[C@](C)(F)[C@@H]1O)Oc1ccccc1 [Compound (Ib)]
- pEC50 [1]: < 5.00
- CC50 at 72 h [2]: > 50 µM
- Stability (percent remaining) HLM (1 hr) [3]: +++++ (80% < +++++)
- Stability (percent remaining) HIM (1 hr) [4]: +++++ (80% < +++++)
- Ms Liver 2′-Me-2′-F-U TP AUC (pmol · hr/g at 1 μmol/kg) [5]: +++ (400 < +++ ≦ 1000)

SMILES: CC(C)OC(=O)[C@@H](C)N[P@@](=O)(OC[C@H]1O[C@@H](n2ccc(=O)[nH]c2=O)[C@](C)(F)[C@@H]1O)Oc1ccccc1 [Compound (Ia), D-Alanine, N—((RP,2′R)-2′-deoxy-2′-fluoro-2′-methyl-P-phenyl-5′-uridylyl)-, 1-methylethyl ester]
- pEC50 [1]: < 5.00
- CC50 at 72 h [2]: > 50 µM
- Stability (percent remaining) HLM (1 hr) [3]: ++++ (60% < ++++ ≦ 80%)
- Stability (percent remaining) HIM (1 hr) [4]: +++++ (80% < +++++)
- Ms Liver 2′-Me-2′-F-U TP AUC (pmol · hr/g at 1 μmol/kg) [5]: +++++ (1600 < +++++)
